Reference: US8569484B2, “Heterocyclic urea derivatives and methods of use thereof” (Astrazeneca AB, priority 2009, dated 2013)

Target: S. aureus GyrB ATPase (Staphylococcus aureus, UniProt P0A0K8)
Assay: S. aureus GyrB ATPase inhibition (ammonium molybdate/malachite green phosphate detection)
Assay type: biochemical
Conditions: 1 μM compound, S. aureus GyrB ATPase; for inhibition at 1 µM: read-out: Percent Inhibition (1 μM)
Description: S. aureus GyrB ATPase Inhibition Activity: Compounds may be tested for inhibition of S. aureus GyrB ATPase activity using an ammonium molybdate/malachite green-based phosphate detection assay (Lanzetta, P. A., L. J. Alvarez, P. S. Reinach, and O. A. Candia, 1979, 100: 95-97). Assays can be performed in multiwell plates in 30 μl reactions containing: 50 mM Hepes buffer pH 7.5, 75 mM ammonium acetate, 8.0 mM magnesium chloride, 0.5 mM ethylenediaminetetraacetic acid, 5% glycerol, 1.0 mM 1,4-Dithio-DL-threitol, 200 nM bovine serum albumin, 1.0 μg/ml sheared salmon sperm DNA, 250 pM E. coli GyrA, 250 pM S. aureus GyrB, 250 μM ATP, and compound in dimethylsulfoxide. Reactions can be quenched with 30 μl of ammonium molybdate/malachite green detection reagent containing 1.2 mM malachite green hydrochloride, 8.5 mM ammonium molybdate tetrahydrate, and 1 M hydrochloric acid. Plates can be read in an absorbance plate reader at 650 nm and percent inhibition values can be calculated using dimethylsulfoxide (2%)-containing reactions as 0% inhibition and EDTA-containing ([…]) reactions as 100% inhibition controls. An IC50 measurement of compound potency for each compound can be determined from reactions performed in the presence of 10 different compound concentrations.

Chain of S. aureus GyrB ATPase (P0AES4 whole entry): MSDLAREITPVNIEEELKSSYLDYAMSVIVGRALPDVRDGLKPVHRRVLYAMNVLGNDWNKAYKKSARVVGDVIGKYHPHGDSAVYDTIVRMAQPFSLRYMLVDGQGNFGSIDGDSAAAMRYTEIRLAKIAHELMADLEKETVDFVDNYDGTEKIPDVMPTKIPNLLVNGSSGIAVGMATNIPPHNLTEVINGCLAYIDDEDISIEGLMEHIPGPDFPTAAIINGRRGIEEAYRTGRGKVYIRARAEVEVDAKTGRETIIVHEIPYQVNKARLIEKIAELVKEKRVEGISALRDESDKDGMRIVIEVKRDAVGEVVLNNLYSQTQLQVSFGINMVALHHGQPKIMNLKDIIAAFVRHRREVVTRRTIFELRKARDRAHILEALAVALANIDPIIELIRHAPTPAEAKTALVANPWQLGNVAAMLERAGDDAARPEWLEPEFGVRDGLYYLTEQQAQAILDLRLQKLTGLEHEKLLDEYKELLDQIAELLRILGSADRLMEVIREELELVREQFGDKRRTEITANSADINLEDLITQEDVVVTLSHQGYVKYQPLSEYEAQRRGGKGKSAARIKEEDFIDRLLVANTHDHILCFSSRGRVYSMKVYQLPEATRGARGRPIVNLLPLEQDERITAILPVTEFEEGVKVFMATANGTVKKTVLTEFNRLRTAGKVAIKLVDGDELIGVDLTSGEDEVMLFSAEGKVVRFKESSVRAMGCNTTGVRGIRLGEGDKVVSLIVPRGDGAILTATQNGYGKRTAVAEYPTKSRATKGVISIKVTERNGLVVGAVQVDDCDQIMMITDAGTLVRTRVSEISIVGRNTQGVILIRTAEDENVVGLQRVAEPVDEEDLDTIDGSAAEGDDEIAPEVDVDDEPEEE
Chain of S. aureus GyrB ATPase (P0A0K8 whole entry): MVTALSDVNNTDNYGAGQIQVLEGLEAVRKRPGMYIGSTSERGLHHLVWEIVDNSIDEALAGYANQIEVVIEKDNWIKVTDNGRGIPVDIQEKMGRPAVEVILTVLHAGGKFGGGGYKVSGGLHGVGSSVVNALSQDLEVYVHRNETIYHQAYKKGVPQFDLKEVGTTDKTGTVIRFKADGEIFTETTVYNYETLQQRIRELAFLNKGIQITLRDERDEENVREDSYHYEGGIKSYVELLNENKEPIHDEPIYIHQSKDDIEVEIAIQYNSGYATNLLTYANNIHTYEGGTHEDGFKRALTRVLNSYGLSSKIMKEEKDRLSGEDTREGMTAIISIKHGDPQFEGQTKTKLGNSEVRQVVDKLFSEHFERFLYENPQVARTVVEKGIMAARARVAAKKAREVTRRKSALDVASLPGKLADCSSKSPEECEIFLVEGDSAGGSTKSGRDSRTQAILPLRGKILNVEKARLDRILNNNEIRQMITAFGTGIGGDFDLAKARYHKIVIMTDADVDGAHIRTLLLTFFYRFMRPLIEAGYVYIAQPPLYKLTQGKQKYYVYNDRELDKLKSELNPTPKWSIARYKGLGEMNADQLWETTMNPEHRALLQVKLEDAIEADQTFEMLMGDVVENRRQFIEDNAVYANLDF

Structure (SMILES) | inhibition at 1 µM | Percent Inhibition (1 μM)
CCNC(=O)Nc1cc(-c2nc(C(F)(F)F)cs2)c(-c2cc3c(=O)c(C(=O)O)cn([C@H](CO)CC(C)C)c3cn2)cn1 [Example 45] | 107% | –
CCNC(=O)Nc1cc(-c2nc(C(F)(F)F)cs2)c(-c2cc3c(=O)c(C(=O)O)cn(CCOC)c3cn2)cn1 [Example 46] | 106% | –
CCNC(=O)Nc1cc(-c2nc(C(F)(F)F)cs2)c(-c2cc3c(=O)c(C(=O)O)cn(CCN(C)C)c3cn2)cn1 [Example 47] | 98% | –
CCNC(=O)Nc1cc(-c2nc(C(F)(F)F)cs2)c(-c2cc3c(=O)c(C(=O)O)cn([C@H]4CCCN(CCN5CCOCC5)C4)c3cn2)cn1 [Example 48] | 101% | –
CCNC(=O)Nc1cc(-c2nc(C(F)(F)F)cs2)c(-c2cc3c(=O)c(C(=O)O)cn([C@@H]4CCCN(CCN5CCOCC5)C4)c3cn2)cn1 [Example 49] | 98% | –
CCNC(=O)Nc1cc(-c2nc(C(F)(F)F)cs2)c(-c2cc3c(=O)c(C(=O)O)cn(Cc4cn(C)cn4)c3cn2)cn1 [Example 50] | 99% | –
CCNC(=O)Nc1cc(-c2nc(C(F)(F)F)cs2)c(-c2cc3c(=O)c(C(=O)O)cn(Cc4cnn(C)c4)c3cn2)cn1 [Example 51, 6-(6-(3-ethylureido)-4-(4-(trifluoromethyl)thiazol-2-yl)pyridin-3-yl)-1-((1-methyl-1H-pyrazol-4-yl)methyl)-4-oxo-1,4-dihydro-1,7-naphthyridine-3-carboxylic acid] | 102% | –
CCNC(=O)Nc1cc(-c2nc(C(F)(F)F)cs2)c(-c2cc3c(=O)c(C(=O)O)cn([C@H]4CCCN(CCN(CC)CC)C4)c3cn2)cn1 [Example 52, (5)-1-(1-(2-(diethylamino)ethyl)piperidin-3-yl)-6-(6-(3-ethylureido)-4-(4-(trifluoromethyl)thiazol-2-yl)pyridin-3-yl)-4-oxo-1,4-dihydro-1,7-naphthyridine-3-carboxylic acid] | – | 105%
CCNC(=O)Nc1cc(-c2nc(C(F)(F)F)cs2)c(-c2cc3c(=O)c(C(=O)O)cn([C@@H]4CCCN(CCN(CC)CC)C4)c3cn2)cn1 [Example 53] | 103% | –
CCNC(=O)Nc1cc(-c2nc(C(F)(F)F)cs2)c(-c2cnc3c(c2)c(=O)c(C(=O)O)cn3[C@@H]2CCCN(CCN(CC)CC)C2)cn1 [Example 54] | 106% | –
CCNC(=O)Nc1cc(-c2nc(C(F)(F)F)cs2)c(-c2cnc3c(c2)c(=O)c(C(=O)O)cn3C(COC)COC)cn1 [Example 55] | 103% | –
CCNC(=O)Nc1cc(-c2nc(C(F)(F)F)cs2)c(-c2cnc3c(c2)c(=O)c(C(=O)O)cn3CCN2CCOCC2)cn1 [Example 56] | 101% | –
CCNC(=O)Nc1cc(-c2nc(C(F)(F)F)cs2)c(-c2cnc3c(c2)c(=O)c(C(=O)O)cn3C2CN(C)C2)cn1 [Example 57] | 107% | –
CCNC(=O)Nc1cc(-c2nc(C(F)(F)F)cs2)c(-c2cc3c(=O)c(C(=O)O)cn(C[C@@H]4CCCN4CC)c3nc2N2CCN(C)CC2)cn1 [Example 58] | 104% | –
CCNC(=O)Nc1cc(-c2nc(C(F)(F)F)cs2)c(-c2cc3c(=O)c(C(=O)O)cn([C@H](CO)C(C)(C)C)c3nc2N2CCN(C)CC2)cn1 [Example 59, (S)-6-(6-(3-ethylureido)-4-(4-(trifluoromethyl)thiazol-2-yl)pyridin-3-yl)-1-(1-hydroxy-3,3-dimethylbutan-2-yl)-7-(4-methylpiperazin-1-yl)-4-oxo-1,4-dihydro-1,8-naphthyridine-3-carboxylic acid] | 108% | –
CCNC(=O)Nc1cc(-c2nc(C(F)(F)F)cs2)c(-c2cc3c(=O)c(C(=O)O)cn(CCN4CCN(C)CC4)c3nc2N2CC[C@@H](CN)C2)cn1 [Example 60] | 101% | –
CCNC(=O)Nc1cc(-c2nc(C(F)(F)F)cs2)c(-c2cc3c(=O)c(C(=O)O)cn(CCN4CCN(C)CC4)c3nc2N2CC[C@H](N)C2)cn1 [Example 61] | 103% | –
CCNC(=O)Nc1cc(-c2nc(-c3ccccc3)cs2)c(-c2cc3c(=O)c(C(=O)O)cn([C@H]4CCCN(CCN5CCOCC5)C4)c3cn2)cn1 [Example 63] | 105% | –
